# Source: patent US20260078103A1, “ISOQUINOLONES AS PI3K INHIBITORS” (OnKure, Inc., priority 2022, published 2026)
# Read-outs that look alike come from different tables or passages of the source.
# Columns and labels:
# Type in all cases: cell-based
# [1] = test system: phosphorylation of AKT (pAKT) in SKBR3 cells express WT PI3Ka; assay: In vitro cell pAKT (Ser473) HTRF, SKBR3 cells
# Outline: (§1)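 pAKT (Ser473) was quantified by HTRF in lysates from cells exposed 6 h at 37 °C to 10-point compound series, with T47D in insulin-supplemented RPMI/10% FBS and SKBR3 in McCoy's 5a/10% FBS. Controls: 0.1% DMSO (high) and 10 uM alpelisib (low). IC50 from sigmoidal curve fitting.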
# [2] = test system: phosphorylation of AKT (pAKT) in T47D cells expressing mutant PI3Ka (H1047R); assay: In vitro cell pAKT (Ser473) HTRF, T47D cells
# Outline: as §1
# [3] = test system: SKBR3 cells express WT PI3Ka; assay: In vitro cell proliferation, SKBR3 cells (CellTiter-Glo); conditions: inhibition of proliferation
# Outline: (§2)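 Proliferation was read by CellTiter-Glo luminescence after 72 h of exposure to 10-point compound dilutions at 37 °C and 5% CO2. T47D (RPMI, 10% FBS, insulin 0.2 units/mL) and SKBR3 (McCoys 5a, 10% FBS) cells were seeded at 1,500 cells/well. EC50 was fitted from inhibition relative to DMSO and 10 uM Alpelisib.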
# [4] = test system: T47D cells expressing mutant PI3Ka (H1047R); assay: In vitro cell proliferation, T47D cells (CellTiter-Glo); conditions: inhibition of proliferation, read-out: Avg T-47D EC50
# Outline: as §2
# [5] = cellular pAKT, T47D cells, mutant PI3Ka (H1047R), 6 hours, read-out: Avg T-47D IC50
# [6] = Homo sapiens, SK-BR-3, 6 h, cellular pAKT
# [7] = Homo sapiens, T47D, 6 h, cellular pAKT, T47D cells, mutant PI3Ka (H1047R), 6 hours, read-out: Avg T-47D IC50
# [8] = Homo sapiens, SK-BR-3, cellular pAKT, 6 hours
# [9] = Homo sapiens, T47D, 6 h, read-out: Avg T-47D IC50, cellular pAKT, T47D cells, mutant PI3Ka (H1047R), 6 hours
"EC50 ([3]; Homo sapiens, SK-BR-3, 72 h)","IC50 [1, 6]","IC50 [2, 7]","EC50 ([4]; Homo sapiens, T47D, 72 h)",Structure (SMILES),"IC50 ([1]; cellular pAKT, 6 hours)","IC50 [2, 5]",EC50 ([4]; 72 hours),EC50 ([3]; 72 hours),"IC50 [1, 8]","IC50 [2, 9]"
> 15000 nM,–,–,–,"CC(Nc1ccccc1C(=O)O)c1cc(F)cc2c(=O)n(C)c(N3CCN(CC(F)(F)F)CC3)c(F)c12 (single isomer, unassigned) [Example 572]",2000 to 15000 nM,1 to 500 nM,1 to 500 nM,–,–,–
> 15000 nM,> 15000 nM,1 to 500 nM,1 to 500 nM,"C[C@@H](Nc1ccccc1C(=O)O)c1cc(F)cc2c(=O)n(C)c(C3C[C@@H]3CF)c(F)c12 (single isomer, unassigned) [Example 577]",–,–,–,–,–,–
> 15000 nM,> 15000 nM,500 to 2000 nM,2000 to 15000 nM,"Cc1cc(C(C)Nc2ccccc2C(=O)O)c2cc(-c3cc4cc(F)ccc4[nH]3)n(C)c(=O)c2c1 (centres unmarked) [Example 7, 2-((1-(3-(5-fluoro-1H-indol-2-yl)-2,7-dimethyl-1-oxo-1,2-dihydroisoquinolin-5-yl)ethyl)amino)benzoic acid]",–,–,–,–,–,–
2000 to 15000 nM,2000 to 15000 nM,1 to 500 nM,1 to 500 nM,"Cc1cc([C@@H](C)Nc2ccc(Cl)nc2C(=O)O)c2cc(N3CCN(Cc4ccc(F)cc4)CC3)n(C)c(=O)c2c1 [Example 25, (R)-6-chloro-3-((1-(3-(4-(4-fluorobenzyl)piperazin-1-yl)-2,7-dimethyl-1-oxo-1,2-dihydroisoquinolin-5-yl)ethyl)amino)picolinic acid]",–,–,–,–,–,–
2000 to 15000 nM,2000 to 15000 nM,1 to 500 nM,1 to 500 nM,"Cc1cc([C@@H](C)Nc2ccc(Cl)nc2C(=O)O)c2cc(-c3ccc(-c4ccc(F)cc4)nc3)n(C)c(=O)c2c1 [Example 26, (R)-6-chloro-3-((1-(3-(6-(4-fluorophenyl)pyridin-3-yl)-2,7-dimethyl-1-oxo-1,2-dihydroisoquinolin-5-yl)ethyl)amino)picolinic acid]",–,–,–,–,–,–
2000 to 15000 nM,2000 to 15000 nM,1 to 500 nM,1 to 500 nM,Cc1cc([C@@H](C)Nc2ccc(Cl)nc2C(=O)O)c2cc(C3=CCN(CC(F)(F)F)CC3)n(C)c(=O)c2c1 [Example 27],–,–,–,–,–,–
> 15000 nM,> 15000 nM,1 to 500 nM,1 to 500 nM,"C[C@@H](Nc1cccc(F)c1C(=O)O)c1cc(F)cc2c(=O)n(C)c(C34CC(C(F)(F)F)(C3)C4)cc12 [Example 39, (R)-2-fluoro-6-((1-(7-fluoro-2-methyl-1-oxo-3-(3-(trifluoromethyl)bicyclo[1.1.1]pentan-1-yl)-1,2-dihydroisoquinolin-5-yl)ethyl)amino)benzoic acid]",–,–,–,–,–,–
2000 to 15000 nM,> 15000 nM,1 to 500 nM,1 to 500 nM,"Cc1cc([C@@H](C)Nc2ccc(F)cc2C(=O)O)c2c(F)c(N3CCN(CC(F)(F)F)CC3)n(C)c(=O)c2c1 [Example 41, (R)-5-fluoro-2-((1-(4-fluoro-2,7-dimethyl-1-oxo-3-(4-(2,2,2-trifluoroethyl)piperazin-1-yl)-1,2-dihydroisoquinolin-5-yl)ethyl)amino)benzoic acid]",–,–,–,–,–,–
> 15000 nM,> 15000 nM,500 to 2000 nM,500 to 2000 nM,"C[C@@H](Nc1ccccc1C(=O)O)c1cc(F)cc2c(=O)n(C)c(-c3cnc(-c4cc(=O)n(C)cc4F)c(F)c3)cc12 [Example 42, (R)-2-((1-(3-(3,5′-difluoro-1′-methyl-2′-oxo-1′,2′-dihydro-[2,4′-bipyridin]-5-yl)-7-fluoro-2-methyl-1-oxo-1,2-dihydroisoquinolin-5-yl)ethyl)amino)benzoic acid]",–,–,–,–,–,–
> 15000 nM,> 15000 nM,1 to 500 nM,1 to 500 nM,"Cc1cc([C@@H](C)Nc2ccccc2C(=O)O)c2cc(C3CC3)n(C)c(=O)c2c1 [Example 43, (R)-2-((1-(3-cyclopropyl-2,7-dimethyl-1-oxo-1,2-dihydroisoquinolin-5-yl)ethyl)amino)benzoic acid]",–,–,–,–,–,–
> 15000 nM,> 15000 nM,1 to 500 nM,1 to 500 nM,"C[C@@H](Nc1ccccc1C(=O)O)c1cc(F)cc2c(=O)n(C)c(-c3cnc(C4(C5CC5)CC4)nc3)cc12 [Example 47, (R)-2-((1-(3-(2-([1,1′-bi(cyclopropan)]-1-yl)pyrimidin-5-yl)-7-fluoro-2-methyl-1-oxo-1,2-dihydroisoquinolin-5-yl)ethyl)amino)benzoic acid]",–,–,–,–,–,–
> 15000 nM,> 15000 nM,1 to 500 nM,500 to 2000 nM,"C[C@@H](Nc1ccccc1C(=O)O)c1cc(F)cc2c(=O)n(C)c(-c3cnc(Oc4cnn(C(F)F)c4)c(F)c3)cc12 [Example 48, (R)-2-((1-(3-(6-((1-(difluoromethyl)-1H-pyrazol-4-yl)oxy)-5-fluoropyridin-3-yl)-7-fluoro-2-methyl-1-oxo-1,2-dihydroisoquinolin-5-yl)ethyl)amino)benzoic acid]",–,–,–,–,–,–

# More lines, now with the values behind:
Structure (SMILES),"EC50 ([3]; Homo sapiens, SK-BR-3, 72 h)","IC50 [1, 6]","IC50 [2, 7]","EC50 ([4]; Homo sapiens, T47D, 72 h)","IC50 ([1]; cellular pAKT, 6 hours)","IC50 [2, 5]",EC50 ([4]; 72 hours),EC50 ([3]; 72 hours),"IC50 [1, 8]","IC50 [2, 9]"
"CC(Nc1ccccc1C(=O)O)c1cc(F)cc2c(=O)n(C)c(N3C4CCC3CN(CC(F)(F)F)C4)c(F)c12 (single isomer, unassigned) [Example 566]",2000 to 15000 nM,–,–,–,> 15000 nM,> 15000 nM,2000 to 15000 nM,–,–,–
"CC(Nc1ccccc1C(=O)O)c1cc(F)cc2c(=O)n(C)c(N3C4CCC3CN(CC(F)(F)F)C4)c(F)c12 (single isomer, unassigned) [Example 567]",–,–,–,–,2000 to 15000 nM,1 to 500 nM,1 to 500 nM,2000 to 15000 nM,–,–
"CC(Nc1ccccc1C(=O)O)c1cc(F)cc2c(=O)n(C)c(N3CCN(CC(F)(F)F)CC3)c(F)c12 (single isomer, unassigned) [Example 573]",–,–,–,–,> 15000 nM,2000 to 15000 nM,2000 to 15000 nM,> 15000 nM,–,–
"Cc1ccc(N[C@H](C)c2cc(F)cc3c(=O)n(C)c(C4CC4C4CC4)cc23)c(C(=O)O)n1 (stereo in doubt) [Example 45, 3-(((R)-1-(3-(trans-[1,1′-bi(cyclopropan)]-2-yl)-7-fluoro-2-methyl-1-oxo-1,2-dihydroisoquinolin-5-yl)ethyl)amino)-6-methylpicolinic acid]",–,–,–,–,> 15000 nM,500 to 2000 nM,2000 to 15000 nM,> 15000 nM,–,–
"Cc1cc(C(C)Nc2ccccc2C(=O)O)c2cc(N3C[C@@H]4[C@@H](C#N)[C@@H]4C3)n(C)c(=O)c2c1 (stereo partly drawn) [Example 14, 2-((1-(3-((1R,5S,6r)-6-cyano-3-azabicyclo[3.1.0]hexan-3-yl)-2,7-dimethyl-1-oxo-1,2-dihydroisoquinolin-5-yl)ethyl)amino)benzoic acid]",> 15000 nM,> 15000 nM,–,–,–,1 to 500 nM,1 to 500 nM,–,–,–
"Cc1cc(C(C)Nc2ccccc2C(=O)O)c2cc(N3C[C@@H]4[C@@H](C#N)[C@@H]4C3)n(C)c(=O)c2c1 (stereo partly drawn) [Example 15, 2-((1-(3-((1R,5S,6r)-6-cyano-3-azabicyclo[3.1.0]hexan-3-yl)-2,7-dimethyl-1-oxo-1,2-dihydroisoquinolin-5-yl)ethyl)amino)benzoic acid]",–,–,–,–,> 15000 nM,2000 to 15000 nM,500 to 2000 nM,> 15000 nM,–,–
"Cc1cc([C@@H](C)Nc2ccc(Cl)nc2C(=O)O)c2cc(N3CCN(c4ccc(F)cc4)CC3)n(C)c(=O)c2c1 [Example 24, (R)-6-chloro-3-((1-(3-(4-(4-fluorophenyl)piperazin-1-yl)-2,7-dimethyl-1-oxo-1,2-dihydroisoquinolin-5-yl)ethyl)amino)picolinic acid]",2000 to 15000 nM,–,–,1 to 500 nM,–,–,–,–,2000 to 15000 nM,1 to 500 nM
"CCn1c(N2CCC(C)(C)CC2)cc2c(C(C)Nc3ccccc3C(=O)O)cc(C)cc2c1=O (centres unmarked) [Example 29, 2-((1-(3-(4,4-dimethylpiperidin-1-yl)-2-ethyl-7-methyl-1-oxo-1,2-dihydroisoquinolin-5-yl)ethyl)amino)benzoic acid]",> 15000 nM,–,–,2000 to 15000 nM,–,–,–,–,> 15000 nM,> 15000 nM
"Cc1cc([C@@H](C)Nc2ccccc2C(=O)O)c2cc(SCc3ccccc3)n(C)c(=O)c2c1 [Example 34, (R)-2-((1-(3-(benzylthio)-2,7-dimethyl-1-oxo-1,2-dihydroisoquinolin-5-yl)ethyl)amino)benzoic acid]",> 15000 nM,–,–,1 to 500 nM,–,–,–,–,> 15000 nM,1 to 500 nM
"Cc1cc([C@@H](C)Nc2ccccc2C(=O)O)c2cc(OCC(C)C)n(C)c(=O)c2c1 [Example 40, (R)-2-((1-(3-isobutoxy-2,7-dimethyl-1-oxo-1,2-dihydroisoquinolin-5-yl)ethyl)amino)benzoic acid]",> 15000 nM,> 15000 nM,1 to 500 nM,500 to 2000 nM,–,–,–,–,–,–
"CCON1CC2CCC(C1)N2c1cc2c([C@@H](C)Nc3ccccc3C(=O)O)cc(F)cc2c(=O)n1C [Example 44, 2-(((1R)-1-(3-(3-ethoxy-3,8-diazabicyclo[3.2.1]octan-8-yl)-7-fluoro-2-methyl-1-oxo-1,2-dihydroisoquinolin-5-yl)ethyl)amino)benzoic acid]",2000 to 15000 nM,2000 to 15000 nM,1 to 500 nM,1 to 500 nM,–,–,–,–,–,–
